In patent publication US8063240B2, “Prostaglandin E1 and E2 analogs for the treatment of various medical conditions” (Cayman Chemical Company, Incorporated, priority 2007, dated 2011):

Assays:
[1] = Stability of purified HPLC peak left overnight in mobile phase; format: physicochemical; conditions: mobile phase 70:30:0.1 MeOH/H2O/AcOH
Experimental: Mobile phase: 70:30:0.1 MeOH/H2O/AcOH—premixed
Sample concentration: sample was dissolved at 100 mg/mL in 70:30 MeOH/H2O Peaks were collected manually at 0° C. and purified batches were kept at −20° C. at the end of each day. Peak 2 (title compound, 14.6 minute retention time) degrades about 6% when left at 4° C. overnight in mobile phase and degrades minimally (<1%) when left at −20° C. overnight. […] LCMS data of both products confirm masses consistent with the designations presented herein.

human EP1 receptor = target: T1, human EP1 receptor (Homo sapiens, UniProt P34995); test: Functional Assay #1AGii (Cerep EP1 Agonist Assay), cytosolic Ca2+ mobilization, fluorimetric detection; format: cell-based; conditions: mean of N=2, percent of control response to 100 nM PGE2, transfected HEK-293 cells
T1 construct: host or cells: HEK-293
T1 sequence (P34995 1-402): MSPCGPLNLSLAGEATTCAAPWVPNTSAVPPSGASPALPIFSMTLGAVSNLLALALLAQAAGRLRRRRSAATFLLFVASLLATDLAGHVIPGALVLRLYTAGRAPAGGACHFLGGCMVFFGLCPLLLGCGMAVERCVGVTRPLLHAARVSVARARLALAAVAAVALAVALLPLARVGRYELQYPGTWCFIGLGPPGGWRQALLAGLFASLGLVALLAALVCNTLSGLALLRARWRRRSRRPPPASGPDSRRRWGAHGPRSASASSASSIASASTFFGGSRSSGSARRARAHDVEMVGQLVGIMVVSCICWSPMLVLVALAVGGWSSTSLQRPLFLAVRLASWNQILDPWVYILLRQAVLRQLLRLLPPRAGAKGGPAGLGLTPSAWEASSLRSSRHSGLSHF
Text: Alternative EP1 Receptor Agonism Assay
(Cerep, Catalog reference 722-55a; UNGRIN, M. D., SINGH L. M. R., STOCCO, R., SAS, D. E. and ABRAMOVITZ, M. (1999), An automated aequorin luminescence-based functional calcium assay for G-Protein-Coupled Receptors. Analytical Biochem., 272, 34.)
Evaluation of the agonist activity of compounds at the human EP1 receptor in transfected HEK-293 cells, determined by measuring their effect on cytosolic Ca^2+ ion mobilization using a fluorimetric detection method.
The cells are suspended in DMEM buffer (Invitrogen), then distributed in microplates at a density of 3.10^4 cells/well. The fluorescent probe (Fluo4 NR, Invitrogen) mixed with probenicid in HBSS buffer (Invitrogen) complemented with 20 mM Hepes (Invitrogen) (pH 7.4) is then added into each well and equilibrated with the cells for 30 minutes at 37° C. then 30 minutes at 22° C. Thereafter, the assay plates are positioned in a microplate reader (CellLux, PerkinElmer) which is used for the addition of the test compound, reference agonist or HBSS buffer (basal control), and the measurements of changes in fluorescence intensity which varies proportionally to the free cytosolic Ca^2+ ion concentration. For stimulated control measurements, PGE2 at 100 nM is added in separate assay wells.
The results are expressed as a percent of the control response to 100 nM PGE2. The standard reference agonist is PGE2, which is tested in each experiment at several concentrations to generate a concentration-response curve from which its EC50 value is calculated.

human EP4 receptor = target: T2, human EP4 receptor (Homo sapiens, UniProt P35408); test: Functional Assay #4AGii (Cerep EP4 Agonist Assay), cAMP production, HTRF detection; format: cell-based; conditions: mean of N=2, percent of control response to 1 μM PGE2, transfected CHO cells
T2 construct: host or cells: CHO
T2 sequence (P35408 whole entry): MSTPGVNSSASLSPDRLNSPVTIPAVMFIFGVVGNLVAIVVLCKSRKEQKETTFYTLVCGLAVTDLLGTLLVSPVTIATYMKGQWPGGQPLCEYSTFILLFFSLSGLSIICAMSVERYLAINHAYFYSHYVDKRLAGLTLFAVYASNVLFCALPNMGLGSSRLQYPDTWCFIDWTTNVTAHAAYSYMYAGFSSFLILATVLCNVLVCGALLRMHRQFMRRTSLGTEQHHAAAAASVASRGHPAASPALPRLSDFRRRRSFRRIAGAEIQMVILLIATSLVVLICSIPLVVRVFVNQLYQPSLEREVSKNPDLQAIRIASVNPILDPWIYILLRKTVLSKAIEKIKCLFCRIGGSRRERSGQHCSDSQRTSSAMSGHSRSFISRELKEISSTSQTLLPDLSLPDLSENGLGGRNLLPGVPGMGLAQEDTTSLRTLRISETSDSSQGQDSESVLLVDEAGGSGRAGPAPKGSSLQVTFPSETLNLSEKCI
Experimental: Alternative EP4 Receptor Agonism Assay
(Cerep, Catalog Reference 758-49a; Wilson, R. J., et al., Ibid.)
Evaluation of the agonist activity of compounds at the human EP4 receptor in transfected CHO cells, determined by measuring their effects on cAMP production using the HTRF detection method.
The cells are suspended in HBSS buffer (Invitrogen) complemented with HEPES 20 mM (pH 7.4) and 500 μM IBMX, then distributed in microplates at a density of 2.10^4 cells/well and incubated for 10 minutes at room temperature in the absence (control) or presence of the test compound or the reference agonist. For stimulated control measurements, separate assay wells contain 1 μM PGE2. Following incubation, the cells are lysed and the fluorescence acceptor (D2-labeled cAMP) and fluorescence donor (anti-cAMP antibody labeled with europium cryptate) are added. After 60 minutes at room temperature, the fluorescence transfer is measured at λex=337 nm and λem=620 and 665 nm using a microplate reader (Rubystar, BMG). The cAMP concentration is determined by dividing the signal measured at 665 nm by that measured at 620 nm (ratio). The results are expressed as a percent of the control response to 1 μM PGE2. The standard reference agonist is PGE2, which is tested in each experiment at several concentrations to generate a concentration-response curve from which its EC50 value is calculated.

human EP2 receptor = target: T3, human EP2 receptor (Homo sapiens, UniProt P43116); test: Functional Assay #2AGii (Cerep EP2 Agonist Assay), cAMP production, HTRF detection; format: cell-based; conditions: mean of N=2, percent of control response to 10 μM PGE2, transfected CHO cells
T3 construct: host or cells: CHO
T3 sequence (P43116 whole entry): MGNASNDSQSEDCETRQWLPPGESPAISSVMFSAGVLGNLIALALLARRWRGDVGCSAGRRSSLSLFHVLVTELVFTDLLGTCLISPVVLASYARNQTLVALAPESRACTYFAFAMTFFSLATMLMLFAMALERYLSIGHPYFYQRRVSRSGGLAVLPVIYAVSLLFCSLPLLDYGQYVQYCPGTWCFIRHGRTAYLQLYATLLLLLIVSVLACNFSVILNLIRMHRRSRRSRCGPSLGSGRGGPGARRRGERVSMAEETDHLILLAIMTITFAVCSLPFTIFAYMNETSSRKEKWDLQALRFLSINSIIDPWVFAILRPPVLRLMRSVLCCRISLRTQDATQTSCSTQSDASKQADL
Text: Alternative EP2 Receptor Agonism Assay
(Cerep, Catalog reference 758-54a; WILSON, R. J., RHODES, S. A., WOOD, R. L., SHIELD, V. J., NOEL, L. S., GRAY, D. W. and GILES H. (2004), Functional pharmacology of human prostanoid EP2 and EP4 receptors, Eur. J. Pharmacol., 501, 49.)
Evaluation of the agonist activity of compounds at the human EP2 receptor in transfected CHO cells, determined by measuring their effects on cAMP production using the HTRF detection method.
The cells are suspended in HBSS buffer (Invitrogen) complemented with HEPES 20 mM (pH 7.4) and 500 μM IBMX, then distributed in microplates at a density of 10^4 cells/well and incubated for 30 minutes at 37° C. in the absence (control) or presence of the test compound or the reference agonist. For stimulated control measurements, separate assay wells contain 10 μM PGE2. Following incubation, the cells are lysed and the fluorescence acceptor (D2-labeled cAMP) and fluorescence donor (anti-cAMP antibody labeled with europium cryptate) are added. After 60 minutes at room temperature, the fluorescence transfer is measured at λex=337 nm and λem=620 and 665 nm using a microplate reader (Rubystar, BMG). The cAMP concentration is determined by dividing the signal measured at 665 nm by that measured at 620 nm (ratio). The results are expressed as a percent of the control response to 10 μM PGE2. The standard reference agonist is PGE2, which is tested in each experiment at several concentrations to generate a concentration-response curve from which its EC50 value is calculated.

Row | SMILES | degradation when left overnight in mobile phase ([1]; 4° C. overnight) | degradation when left overnight in mobile phase ([1]; −20° C. overnight) | % Control Agonist response @ compound concentration (human EP1 receptor; 0.1 μM) | % Control Agonist response @ compound concentration (human EP1 receptor; 1 μM) | % Control Agonist response @ compound concentration (human EP1 receptor; 10 μM) | % Control Agonist response @ compound concentration (human EP4 receptor; 0.1 μM) | % Control Agonist response @ compound concentration (human EP4 receptor; 1 μM) | % Control Agonist response @ compound concentration (human EP4 receptor; 10 μM) | % Control Agonist response @ compound concentration (human EP2 receptor; 0.1 μM) | % Control Agonist response @ compound concentration (human EP2 receptor; 1 μM) | % Control Agonist response @ compound concentration (human EP2 receptor; 10 μM)
1 | O=C(O)CCC/C=C\C[C@H]1C(=O)C[C@H](F)[C@@H]1/C=C/[C@@H](O)C1Cc2ccccc2C1 (single isomer, unassigned) [Example 17] | about 6% | < 1% | – | – | – | – | – | – | – | – | –
2 | O=C(O)CCC/C=C\C[C@H]1C(=O)C[C@@H](O)[C@@H]1/C=C/[C@@H](O)c1cc2ccccc2s1 [Example 7, (Z)-7-((1R,2R,3R)-2-((R,E)-3-(benzo[b]thiophen-2-yl)-3-hydroxyprop-1-enyl)-3-hydroxy-5-oxocyclopentyl)hept-5-enoic Acid] | – | – | 80% | 88% | 144% | −1% | 4% | 29% | 0% | −1% | 5%
